Reference: patent US20220009894A1, “1,2,3,4-TETRAHYDROQUINOXALINE DERIVATIVE, PREPARATION METHOD THEREFOR AND APPLICATION THEREOF” (Abbisko Therapeutics Co., Ltd., priority 2019, published 2022)

Tests used:
RORγt-LBD = molecular target: T1, RORγt-LBD (Homo sapiens, UniProt P51449); assay: Time-resolved fluorescence resonance energy-transfer assay (TR-FRET), co-activator peptide recruitment; type: biochemical; parameters: TR-FRET Biochemical Amax: unit not given here; conditions: for EC50: His-RORγt-LBD 30 nM, SRC peptide 500 nM, agonistic activity, averages of one or more measurements, read-out: TR-FRET Biochemical EC50/; for TR-FRET Biochemical Amax: upper activation limit, His-RORγt-LBD, SRC peptide
T1 sequence (P51449 269-508 limits assumed): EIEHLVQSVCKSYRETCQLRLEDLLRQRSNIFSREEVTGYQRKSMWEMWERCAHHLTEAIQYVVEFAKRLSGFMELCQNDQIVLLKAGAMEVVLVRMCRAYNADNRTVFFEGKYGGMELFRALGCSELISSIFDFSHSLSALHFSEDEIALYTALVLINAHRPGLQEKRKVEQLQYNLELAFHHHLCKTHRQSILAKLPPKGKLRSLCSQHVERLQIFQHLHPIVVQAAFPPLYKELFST
From the text: I. Time-Resolved Fluorescence Resonance Energy-Transfer Assay (TR-FRET)
This experiment was a screening experiment for RORγt nuclear receptor agonists based on TR-FRET technology. When His-labeled RORγt-LBD receptor binds to receptor agonists, it may increase the recruitment of biotin-labeled co-activator peptides. Europium-His-RORγt-LBD is indirectly labeled by donor (Eu) by binding to Eu-anti-His antibody. Once Eu is activated by an energy source (such as flashlight or laser), the energy will be transferred to the co-activator indirectly labeled by allophycocyanin by binding of allophycocyanin-streptavidin and biotin-labeled co-activator. • 1. 10× buffer (500 mM Tris-HCl, 500 mM KCl, and 10 mM Na-EDTA) was prepared, pH value was adjusted to 7.0. The buffer was stored at 4° C. for later use and was restored to normal temperature before experiment; • 2. The 10× buffer was diluted to 1× with pure water. Final concentration of 0.01% Triton X-100 and 1 mM DTT (dithiothreitol) were added to prepare the assay buffer; • 3. DMSO was used to prepare 1000× compound stock solution. The compound solution was serial-diluted in 5-fold for 7 concentrations from the top concentration of 1000 nM/10000 nM. Then the 10× compound solution was prepared with assay buffer. An amount of 2 μL was aliquoted into the 20 μL system; • 4. 5×RORγt-LBD protein solution was unfreezed, and a solution of 5× concentration was prepared with assay buffer to obtain a final concentration of 30 nM. The whole operation was carried out on ice; • 5. 5×SRC peptide was unfreezed, and a solution of 5× concentration was prepared with assay buffer to obtain a final concentration of 500 nM. The whole operation was carried out on ice; • 6. 4 μL/well of RORγt-LBD receptor was added into the testing wells of 384-well plate, and the same amount of assay buffer was added to the control wells of non-RORγt-LBD group; • 7. 2 μL of compound was added into each well of 384-well plate; • 8. 4 μL of SRC peptide was added into each well of 384-well plate; • 9. 2× Eu-anti-6× His/APC-Streptavidin was diluted with Lance detection buffer to a final concentration of 0.25 nM and 5 nM, respectively, and then 10 μL of 2× Eu-anti-6× His/APC-Streptavidin was added into each well of 384-well plate; • 10. The mixed solution was incubated at 4° C. overnight; • 11. On the morning of the next day, the 384-well plate was incubated at room temperature for 1 hr. Then the corresponding signal values were read with PerkinElmer EnVision at a wavelength of 665/615 […]. The agonistic activity of the corresponding compound was calculated with Graphpad Prism 7.0 software.

RORγt = molecular target: T2, RORγt (Homo sapiens, UniProt P51449); assay: RORγt cellular reporter gene detection assay; type: cell-based; conditions: 24 hrs; for EC50: HEK 293 cells co-transfected with pFN26A-RORγt-LBD and pG14.35, in presence of antagonist Ursolic acid, top concentration 50 μM; for Cellular Reporter Assay Amax: upper activation limit, HEK 293 cells, in presence of antagonist Ursolic acid;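 as to Cellular Reporter Assay Amax: Ursolic Acid added as 5 µL of 20 µM medium per well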
T2 construct: The plasmid of pFN26A-RORγt-LBD and pG14.35 (Promega, Cat. No. E1370) were co-transfected into HEK 293 cells; expressed in transfected cells; host or cells: HEK 293 cells (Cat. No. GNHu18)
T2 sequence (P51449 269-508 limits assumed): T1 sequence (P51449 269-508 limits assumed)
Description: II. RORγt Cellular Reporter Gene Detection Assay
In this experiment, RORγt Reporter Gene Detection method was used to evaluate the activation and specificity of compounds to RORγt in cells. The plasmid of pFN26A-RORγt-LBD and pG14.35 (Promega, Cat. No. E1370) were co-transfected into HEK 293 cells (Cat. No. GNHu18). The efficacy of compounds was evaluated with the presence of an antagonist Ursolic acid (Selleck, Cat. No. S2370-100 mg). The specific experimental process was as follow: • 1. The plasmids-co-transfected cells were inoculated into a 96-well plate (Corning, Cat. No 3610) in a fresh DMEM medium (Gibco, cat. No. 1773536) containing 10% fetal bovine serum (Gibco, Cat. No. 10099-141) at 30000 cells/40 μL/well; • 2. 5 μL of medium containing 20 μM Ursolic acid was added thereto; • 3. The dose effect was evaluated by a 4-fold dilution of the test compound starting from 50 μM; • 4. 5 μL of medium containing a compound concentration of 10-fold of its final test concentration was added; • 5. After the cells were incubated at 37° C. and 5% CO2 for 24 hrs, 50 μL of detection reagent was added to detect firefly fluorescence using PerkinElmerEnVision, and 50 μL of the second detection reagent was added to detect sea kidney fluorescence; • 6. A four-parameter curve simulated in GraphPad Prism was used to determine the concentration for 50% activation (EC50) and the upper activation limit (Amax) for each compound.

SMILES | EC50 (RORγt-LBD) | TR-FRET Biochemical Amax (RORγt-LBD) | EC50 (RORγt) | Cellular Reporter Assay Amax (RORγt)
O=S(=O)(c1cccc(C(F)(F)F)c1)N1CCNc2ccc(-c3cc(F)cc(OC(F)F)c3)cc21 [Example 2, 7-(3-(difluoromethoxy)-5-fluorophenyl)-1-((3-(trifluoromethyl)phenyl)sulfonyl)-1,2,3,4-tetrahydroquinoxaline] | 18.1 nM | 1.85 | 163 nM | 3.1
O=S(=O)(c1cccc(C(F)(F)F)c1)N1C[C@@H]2CCCN2c2ccc(-c3cc(F)cc(OC(F)F)c3)cc21 [Example 4, (S)-7-(3-(difluoromethoxy)-5-fluorophenyl)-5-((3-(trifluoromethyl)phenyl)sulfonyl)-1,2,3,3a,4,5-hexa-hydropyrrolo[1,2-a]qui-noxaline] | 28.4 nM | 1.25 | 3550 nM | 4.9
CN1c2ccc(/C=C/c3c(Cl)cccc3C(F)(F)F)cc2N(S(=O)(=O)c2cccc(C(F)(F)F)c2)C[C@@H]1CCC(=O)O [Example 6, (S,E)-3-(6-(2-chloro-6-(tri-fluoromethyl)styryl)-1-meth-yl-4-((3-(trifluoromethyl)phenyl)sulfonyl)-1,2,3,4-tetrahydroquinoxalin-2-yl) propanoic acid] | 16.1 nM | 1.54 | 528 nM | 4.2
CS(=O)(=O)N1CCN2c3ccc(-c4cc(F)cc(OC(F)F)c4)cc3N(S(=O)(=O)c3cccc(C(F)(F)F)c3)C[C@@H]2C1 [Example 8, (S)-8-(3-(difluoromethoxy)-5-fluorophenyl)-3-(methylsulfonyl)-6-((3-(trifluoromethyl)phenyl)sulfonyl)-2,3,4,4a,5,6-hexahydro-1H-pyrazino[1,2-a]quinoxaline] | 13.3 nM | 1.22 | 90.4 nM | 5.5
O=C(O)CN1CCN2c3ccc(-c4cc(F)cc(OC(F)F)c4)cc3N(S(=O)(=O)c3cccc(C(F)(F)F)c3)C[C@@H]2C1 [Example 9, (S)-2-(8-(3-(difluoromethoxy)-5-fluorophenyl)-6-((3-(trifluoromethyl)phenyl)sulfonyl)-1,2,4,4a,5,6-hexahydro-3H-pyrazino[1,2-a]quinoxalin-3-yl)acetic acid] | 11.6 nM | 0.63 | 290 nM | 3.5
O=S(=O)(c1cccc(C(F)(F)F)c1)N1C[C@@H]2CNCCN2c2ccc(/C=C/c3c(Cl)cccc3C(F)(F)F)cc21 [Example 11, (S,E)-8-(2-chloro-6-(tri-fluoromethyl)styryl)-6-((3-(trifluoromethyl)phenyl)sulfonyl)-2,3,4,4a,5,6-hexa-hydro-1H-pyrazino[1,2-a]quinoxaline] | 21.7 nM | 0.82 | 429 nM | 3.2

More lines, in order of falling EC50 (RORγt-LBD), values ahead:

EC50 (RORγt-LBD) | TR-FRET Biochemical Amax (RORγt-LBD) | EC50 (RORγt) | Cellular Reporter Assay Amax (RORγt) | SMILES
136 nM | 0.67 | 2390 nM | 4.3 | O=S(=O)(c1cccc(C(F)(F)F)c1)N1C[C@@H]2CNCCN2c2ccc(-c3cc(F)cc(OC(F)F)c3)cc21 [Example 12, (S)-8-(3-(difluoromethoxy)-5-fluorophenyl)-6-((3-(trifluoromethyl)phenyl)sulfonyl)-2,3,4,4a,5,6-hexa-hydro-1H-pyrazino[1,2-a]quinoxaline]
29.1 nM | 1.20 | 1740 nM | 4.4 | C/C(=C\c1ccc2c(c1)N(S(=O)(=O)c1cccc(C(F)(F)F)c1)C[C@H](CCC(=O)O)N2C)c1c(F)cccc1Cl [Example 3, (S,E)-3-(6-(2-(2-chloro-6-fluorophenyl)prop-1-en-1-yl)-1-methyl-4-((3-(trifluoromethyl)phenyl)sulfonyl)-1,2,3,4-tetrahydroquinoxalin-2-yl)propanoic acid]
18.4 nM | 1.61 | 518 nM | 3.3 | CN1CCN(S(=O)(=O)c2cccc(C(F)(F)F)c2)c2cc(-c3cc(F)cc(OC(F)F)c3)ccc21 [Example 1, 6-(3-(difluoromethoxy)-5-fluorophenyl)-1-methyl-4-((3-(trifluoromethyl)phenyl)sulfonyl)-1,2,3,4-tetrahydroquinoxaline]
17.5 nM | 1.45 | 145 nM | 3.7 | CC(=O)N1CCN2c3ccc(-c4cc(F)cc(OC(F)F)c4)cc3N(S(=O)(=O)c3cccc(C(F)(F)F)c3)C[C@@H]2C1 [Example 7, (S)-1-(8-(3-(difluoromethoxy)-5-fluorophenyl)-6-((3-(trifluoromethyl)phenyl)sulfonyl)-1,2,4,4a,5,6-hexahydro-3H-pyrazino[1,2-a]quinoxalin-3-yl)ethan-1-one]
13.6 nM | 0.81 | 578 nM | 2.8 | C/C(=C\c1ccc2c(c1)N(S(=O)(=O)c1cccc(C(F)(F)F)c1)C[C@@H]1CNCCN21)c1c(F)cccc1Cl [Example 10, (S,E)-8-(2-(2-chloro-6-fluorophenyl)prop-1-en-1-yl)-6-((3-(trifluoromethyl)phenyl)sulfonyl)-2,3,4,4a,5,6-hexahydro-1H-pyrazino[1,2-a]quinoxaline]
9.68 nM | 1.39 | 1030 nM | 5.0 | CN1c2ccc(-c3cc(F)cc(OC(F)F)c3)cc2N(S(=O)(=O)c2cccc(C(F)(F)F)c2)C[C@@H]1CCC(=O)O [Example 5, (S)-3-(6-(3-(difluorome-thoxy)-5-fluorophenyl)-1-methyl-4-((3-(trifluorometh-yl)phenyl)sulfonyl)-1,2,3,4-tetrahydroquinoxalin-2-yl)propanoic acid]
6.73 nM | 1.01 |  |  | CC1(C)C=C(c2ccc3c(c2)N(S(=O)(=O)c2cccc(C(F)(F)F)c2)C[C@@H]2CN(C[C@@H](O)CO)CCN32)CC(C)(C)O1 [Example 41, (R)-3-((S)-8-(2,2,6,6-tetrameth-yl-3,6-dihydro-2H-pyran-4-yl)-6-((3-(trifluoromethyl)phe-nyl)sulfonyl)-1,2,4,4a,5,6-hexa-hydro-3H-pyrazino[1,2-a]qui-noxalin-3-yl)propane-1,2-diol]
